From US8957001B2, “Particles comprising a biopolymer which is degradable under the effect of an electromagnetic wave as emitted by a solar radiation” (BASF Beauty Care Solutions France SAS, priority 2002, dated 2015)

Assay: Progressive release of an encapsulated active from liposomes under UV irradiation
Type: physicochemical
Excerpt: All is done in a manner identical to what is presented in Example 15, but RNA of marine origin, which is commercially available, is used in amounts which are identical to those used in Example 15. All is done in a manner identical to what is presented in Example 15, but DNA of plant origin or RNA of plant origin, which are commercially available (Inocosm), are used in amounts which are identical to those used in Example 15. All is done in a manner identical to what is presented in Example 15, but oligonucleosides or oligonucleotides, which are prepared by chemical synthesis and which are available from companies which manufacture these nucleosides or these nucleotides to order, are used for preparing these particles, in proportions which are identical to those used in Example 15.

CCCCC(CC)COC(=O)C=Cc1ccc(OC)cc1 (stereo not shown) [Parsol MCX]
release under UV irradiation (encapsulated in plant DNA or plant RNA liposomes (Example 17), after 3 hours of irradiation): 60%
release under UV irradiation (encapsulated in plant DNA or plant RNA liposomes (Example 17), after 6 hours of irradiation): 96%

tocopherol
release under UV irradiation (encapsulated in marine RNA liposomes (Example 16), after 3 hours of irradiation): 40%
release under UV irradiation (encapsulated in marine RNA liposomes (Example 16), after 6 hours of irradiation): 80%
